This note sets out measurements from patent publication US8716284B2, “Adamantyl diamide derivatives and uses of same” (H. Lundbeck A/S, priority 2008, dated 2014).

Structures are written as SMILES.

For this experiment, the target named is T1, rat metabotropic glutamate receptor 5 (mGluR5) (Rattus norvegicus, UniProt P31424).
T1 construct: expressed in transfected cells; host or cells: HEK 293
In words: Calcium mobilization assay (FLIPR) for negative or positive allosteric activity, HEK 293 cells. In kind it is cell-based. The following applies: HEK293, negative allosteric modulation, inhibition of EC80 glutamate response; read-out: FLIPR maximum inhibition. Here is the method:
The cDNA for rat metabotropic glutamate receptor 5 (mGluR5) was a generous gift from S. Nakanishi (Kyoto University, Kyoto, Japan). The mGluR5 was stably expressed in a HEK 293 cell line and grown in Dulbecco's Modified Eagle Medium (DMEM) (Invitrogen, Carlsbad, Calif.) with supplements (10% bovine calf serum, 4 mM glutamine, 100 units/mL penicillin, 100 μg/mL streptomycin and 0.75 mM G1418) at 37° C., 5% CO2. Twenty-four hours prior to assay, cells were seeded into 384-well black wall microtiter plates coated with poly-D-lysine. Just prior to assay, media was aspirated and cells dye-loaded (25 μL/well) with 3 μM Fluo-4/0.01% pluronic acid in assay buffer (Hank's Balanced Saline Solution (HBSS)): 150 mM NaCl, 5 mM KCl, 1 mM CaCl2, 1 mM MgCl2, plus 20 mM N-2-Hydroxyethylpiperazine-N′-2-ethanesulfonic acid (HEPES), pH 7.4, 0.1% bovine serum albumin (BSA) and 2.5 mM probenicid) for 1 hour in 5% CO2 at 37° C. After excess dye was discarded, cells were washed in assay buffer and layered with a final volume equal to 30 μL/well. Basal fluorescence is monitored in a fluorometric imaging plate reader (FLIPR) (Molecular Devices, Sunnyvale, Calif.) with an excitation wavelength of 488 nm and an emission range of 500 to 560 nm. Laser excitation energy was adjusted so that basal fluorescence readings were approximately 10,000 relative fluorescent units. Cells were stimulated with an EC20 or an EC80 concentration of glutamate in the presence of a compound to be tested, both diluted in assay buffer, and relative fluorescent units were measured at defined intervals (exposure=0.6 sec) over a 3 min period at room temperature. Basal readings derived from negative controls were subtracted from all samples. Maximum change in fluorescence was calculated for each well. Concentration-response curves derived from the maximum change in fluorescence were analyzed by nonlinear regression (Hill equation). A negative modulator can be identified from these concentration-response curves if a compound produces a concentration dependent inhibition of the EC80 glutamate response. […] Examples 11-163 also were tested in the above assay.
A positive modulator can be identified from these concentration-response curves if a compound produces a concentration dependent increase in the EC20 glutamate response.
In general terms: A change in cytosolic calcium serves as a functional read-out for many receptors and channels.

T1 sequence (P31424 21-1171 isoform P31424-2 limits assumed): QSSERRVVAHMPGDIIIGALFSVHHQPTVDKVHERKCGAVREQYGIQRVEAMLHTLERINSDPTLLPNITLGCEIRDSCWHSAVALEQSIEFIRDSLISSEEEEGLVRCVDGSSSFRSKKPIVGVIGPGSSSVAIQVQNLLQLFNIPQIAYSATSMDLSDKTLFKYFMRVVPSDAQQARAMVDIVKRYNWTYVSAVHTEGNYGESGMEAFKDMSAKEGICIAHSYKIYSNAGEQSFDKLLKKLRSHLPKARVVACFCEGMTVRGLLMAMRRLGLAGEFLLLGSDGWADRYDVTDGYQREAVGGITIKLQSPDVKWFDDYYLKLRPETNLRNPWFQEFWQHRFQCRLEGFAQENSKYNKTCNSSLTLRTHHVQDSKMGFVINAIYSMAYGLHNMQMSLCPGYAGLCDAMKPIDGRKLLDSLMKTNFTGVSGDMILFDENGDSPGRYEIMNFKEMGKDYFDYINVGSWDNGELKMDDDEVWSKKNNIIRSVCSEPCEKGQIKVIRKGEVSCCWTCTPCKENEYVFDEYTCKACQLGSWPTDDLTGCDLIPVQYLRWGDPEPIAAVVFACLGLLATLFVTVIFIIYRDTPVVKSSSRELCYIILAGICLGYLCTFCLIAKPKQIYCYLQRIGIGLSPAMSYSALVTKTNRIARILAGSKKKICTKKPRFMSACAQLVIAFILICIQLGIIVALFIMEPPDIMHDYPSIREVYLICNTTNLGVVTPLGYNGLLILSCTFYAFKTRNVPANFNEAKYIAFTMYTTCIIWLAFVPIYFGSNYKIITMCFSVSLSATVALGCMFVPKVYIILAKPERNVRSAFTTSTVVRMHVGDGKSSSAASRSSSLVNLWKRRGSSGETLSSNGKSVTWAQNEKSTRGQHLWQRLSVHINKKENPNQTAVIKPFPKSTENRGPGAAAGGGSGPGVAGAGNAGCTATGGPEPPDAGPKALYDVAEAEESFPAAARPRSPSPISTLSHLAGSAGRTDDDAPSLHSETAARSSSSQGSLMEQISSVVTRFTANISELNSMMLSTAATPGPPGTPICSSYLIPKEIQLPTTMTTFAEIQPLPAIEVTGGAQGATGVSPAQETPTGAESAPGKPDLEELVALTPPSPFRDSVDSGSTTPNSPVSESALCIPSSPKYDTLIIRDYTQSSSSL

For `CCOc1cc(C(=O)NC23CC4CC(C2)CC(NC(=O)c2cncc(C)n2)(C4)C3)ccn1` [Example 155, 6-Methyl-pyrazine-2-carboxylic acid {3-[(2-ethoxy-pyridine-4-carbonyl)-amino]-adamantan-1-yl}-amide], the Emax is 70 to 99%. As to `O=C(NC12CC3CC(C1)CC(NC(=O)c1cccc(F)c1)(C3)C2)c1cccc(F)c1` [Example 15, N,N′-(1,3-adamantylene)bis(3-fluorobenzamide)], the Emax fell in the range of 63 to 99%. On to `Cc1cccc(C(=O)NC23CC4CC(C2)CC(NC(=O)c2cccc(C)c2)(C4)C3)c1` [Example 16, N,N′-(1,3-adamantylene)bis(3-menthylbenzamide)], for which the Emax was 63 to 99%. As for `O=C(NC12CC3CC(C1)CC(NC(=O)c1cccc(NCCCO)n1)(C3)C2)c1ccccn1` [Example 203, 6-(3-Hydroxy-propylamino)-pyridine-2-carboxylic acid {3-[(pyridine-2-carbonyl)-amino]-adamantan-1-yl}-amide], the Emax was 63 to 99%. The same measure for `Cc1cccc(C(=O)NC23CC4CC(C2)CC(NC(=O)c2nc5ccccc5s2)(C4)C3)n1` [Example 36, Benzothiazole-2-carboxylic acid {3-[(6-methyl-pyridine-2-carbonyl)-amino]-adamantan-1-yl}-amide]: 63 to 99%. The same measure for `O=C(NC12CC3CC(C1)CC(NC(=O)c1nccc(C(F)(F)F)n1)(C3)C2)c1ccccn1` [Example 113, 4-Trifluoromethyl-pyrimidine-2-carboxylic acid {3-[(pyridine-2-carbonyl)-amino]-adamantan-1-yl}-amide]: 70 to 99%; for `Cc1cccc(C(=O)NC23CC4CC(C2)CC(NC(=O)c2ncccc2F)(C4)C3)n1` [Example 129, 6-Methyl-pyridine-2-carboxylic acid {3-[(3-fluoro-pyridine-2-carbonyl)-amino]-adamantan-1-yl}-amide]: 70 to 99%; for `O=C(NC12CC3CC(C1)CC(NC(=O)C1CCC1)(C3)C2)c1ccccn1` [Example 82, Pyridine-2-carboxylic acid [3-(cyclobutanecarbonyl-amino)-adamantan-1-yl]-amide]: 63 to 99%. For `CN(C)CCCN(C)c1cccc(C(=O)NC23CC4CC(CC(NC(=O)c5ccccn5)(C4)C2)C3)n1` [Example 221, 6-[(3-Dimethylamino-propyl)-methyl-amino]-pyridine-2-carboxylic acid {3-[(pyridine-2-carbonyl)-amino]-adamantan-1-yl}-amide], the Emax lay in the range of 63 to 99%. The same measure for `CNC(=O)c1cccc(C(=O)NC23CC4CC(CC(NC(=O)c5ccccn5)(C4)C2)C3)n1` [Example 64, Pyridine-2,6-dicarboxylic acid 2-methylamide 6-({3-[(pyridine-2-carbonyl)-amino]-adamantan-1-yl}-amide)]: 63 to 99%; for `O=C(NC12CC3CC(C1)CC(NC(=O)c1cc(F)ccn1)(C3)C2)c1ccccn1` [Example 108, 4-Fluoro-pyridine-2-carboxylic acid{3-[(pyridine-2-carbonyl)-amino]-adamantan-1-yl}-amide]: 70 to 99%; for `O=C(NC12CC3CC(C1)CC(NC(=O)c1cccc(-n4ccnc4)n1)(C3)C2)c1ccccn1` [Example 253, 6-Imidazol-1-yl-pyridine-2-carboxylic acid {3-[(pyridine-2-carbonyl)-amino]-adamantan-1-yl}-amide]: 63 to 99%. On to `Cc1cccc(C(=O)NC23CC4CC(C2)CC(NC(=O)c2ccno2)(C4)C3)n1` [Example 31, 6-Methyl-pyridine-2-carboxylic acid {3-[(isoxazole-5-carbonyl)-amino]-adamantan-1-yl}-amide], for which the Emax fell in the range of 63 to 99%.

Take `COc1cc(C(=O)NC23CC4CC(C2)CC(NC(=O)c2cncc(C)n2)(C4)C3)ccn1` [Example 154, 6-Methyl-pyrazine-2-carboxylic acid {3-[(2-methoxy-pyridine-4-carbonyl)-amino]-adamantan-1-yl}-amide]: the Emax fell in the range of 70 to 99%.

For the compound `Cc1ccnc(C(=O)NC23CC4CC(CC(NC(=O)c5ccncn5)(C4)C2)C3)n1` [Example 194, 4-Methyl-pyrimidine-2-carboxylic acid {3-[(pyrimidine-4-carbonyl)-amino]-adamantan-1-yl}-amide], the Emax was in the range of 63 to 99%. `Cc1cccc(C(=O)NC23CC4CC(CC(NC(=O)c5cc(Br)ccn5)(C4)C2)C3)n1` [Example 138, 6-Methyl-pyridine-2-carboxylic acid {3-[(4-bromo-pyridine-2-carbonyl)-amino]-adamantan-1-yl}-amide]: the Emax lay within 70 to 99%. The same measure for `Cc1cccc2nc(C(=O)NC34CC5CC(CC(NC(=O)c6cccc(F)c6)(C5)C3)C4)cn12` [Example 103, 5-Methyl-imidazo[1,2-a]pyridine-2-carboxylic acid [3-(3-fluoro-benzoylamino)-adamantan-1-yl]-amide]: 63 to 99%. With `Cc1cccc(C(=O)NC23CC4CC(C2)CC(NC(=O)c2cccc(N5CCC[C@@H]5CO)n2)(C4)C3)n1` [Example 238, 6-((R)-2-Hydroxymethyl-pyrrolidin-1-yl)-pyridine-2-carboxylic acid {3-[(6-methyl-pyridine-2-carbonyl)-amino]-adamantan-1-yl}-amide], the Emax was 63 to 99%. Consider `O=C(NC12CC3CC(C1)CC(NC(=O)c1cccc(N4CCC(O)C4)n1)(C3)C2)c1cccc(F)c1` (centres unmarked) [Example 219, 6-(3-Hydroxy-pyrrolidin-1-yl)-pyridine-2-carboxylic acid [3-(3-fluoro-benzoylamino)-adamantan-1-yl]-amide], for which the Emax was 63 to 99%.

Regarding `CN(C)CCNc1cccc(C(=O)NC23CC4CC(CC(NC(=O)c5ccccn5)(C4)C2)C3)n1` [Example 222, 6-(2-Dimethylamino-ethylamino)-pyridine-2-carboxylic acid {3-[(pyridine-2-carbonyl)-amino]-adamantan-1-yl}-amide], the Emax was 63 to 99%.

With `O=C(NC12CC3CC(C1)CC(NC(=O)c1ccc4[nH]ccc4n1)(C3)C2)c1ccccn1` [Example 66, 1H-Pyrrolo[3,2-b]pyridine-5-carboxylic acid {3-[(pyridine-2-carbonyl)-amino]-adamantan-1-yl}-amide], the Emax fell in the range of 63 to 99%. Turning to `Cc1cccc(C(=O)NC23CC4CC(C2)CC(NC(=O)c2cccc(N5CCOCC5)n2)(C4)C3)n1` [Example 22, 6-Morpholin-4-yl-pyridine-2-carboxylic acid-{3-[(6-methyl-pyridine-2-carbonyl)-amino]-adamantan-1-yl}-amide], the Emax was 63 to 99%. For `Cc1ccc2nc(C(=O)NC34CC5CC(CC(NC(=O)c6cccc(F)c6)(C5)C3)C4)cn2c1` [Example 102, 6-Methyl-imidazo[1,2-a]pyridine-2-carboxylic acid [3-(3-fluoro-benzoylamino)-adamantan-1-yl]-amide], the Emax lay in the range of 63 to 99%.

On to `Cc1cncc(C(=O)NC23CC4CC(CC(NC(=O)c5ccc6ocnc6c5)(C4)C2)C3)n1` [Example 175, Benzoxazole-5-carboxylic acid {3-[(6-methyl-pyrazine-2-carbonyl)-amino]-adamantan-1-yl}-amide], for which the Emax lay in the range of 63 to 99%. Consider `Cc1cccc(C(=O)NC23CC4CC(C2)CC(NC(=O)c2cccc(NCCCO)n2)(C4)C3)n1` [Example 210, 6-(3-Hydroxy-propylamino)-pyridine-2-carboxylic acid {3-[(6-methyl-pyridine-2-carbonyl)-amino]-adamantan-1-yl}-amide], for which the Emax lay within 63 to 99%. The result for `CN1CCN(c2cccc(C(=O)NC34CC5CC(CC(NC(=O)c6ccccn6)(C5)C3)C4)n2)CC1` [Example 198, 6-(4-Methyl-piperazin-1-yl)-pyridine-2-carboxylic acid {3-[(pyridine-2-carbonyl)-amino]-adamantan-1-yl}-amide] reads 63 to 99%; that for `O=C(NC12CC3CC(C1)CC(NC(=O)c1cccc(N4CCC(O)CC4)n1)(C3)C2)c1cccc(F)c1` [Example 218, 4-Hydroxy-3,4,5,6-tetrahydro-2H-[1,2′]-bipyridinyl-6′-carboxylic acid [3-(3-fluoro-benzoylamino)-adamantan-1-yl]-amide], 63 to 99%. As for `O=C(NC12CC3CC(C1)CC(NC(=O)c1ccccn1)(C3)C2)c1ccn2ccnc2c1` [Example 87, Imidazo[1,2-a]pyridine-7-carboxylic acid {3-[(pyridine-2-carbonyl)-amino]-adamantan-1-yl}-amide], the Emax was 63 to 99%.

For the compound `Cc1cc(C(=O)NC23CC4CC(C2)CC(NC(=O)c2cncc(C)n2)(C4)C3)ccn1` [Example 156, 6-Methyl-pyrazine-2-carboxylic acid {3-[(2-methyl-pyridine-4-carbonyl)-amino]-adamantan-1-yl}-amide], the Emax was 70 to 99%.
